Measurements taken from patent publication US20260234159A1, “SMALL MOLECULE TREATMENT OF FATTY LIVER DISEASE AND HCC” (SCANDIEDGE THERAPEUTICS AB, priority 2023, published 2026).

What was measured:
HepG2 cells [1] = assay: FACs analysis with PI staining (cell cycle); format: cell-based, human
Method: 400,000 HepG2 cells were seeded in a 6-well plated and treated with 10 μM of the compounds for 2 days. Cells were fixed with 70% ethanol and stained with 50 μg/ml PI. Prepared cells were analysed using BD FACS Canto II Flow Cytometry system at PE-A channel 10,000 cells per group. The data was histogram plotted with BD FACSDiva 9.0.

HepG2 cells [2] = assay: Mitochondrial membrane potential assay (TMRE); format: cell-based, human; conditions: 10 μM, one day
Procedure, shortened: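 HepG2 cells treated with compounds at the chosen concentration and time, then assayed with kits for TMRE, autophagy, DCFDA ROS or lipid peroxidation. Fluorescence intensity measured from ROI in images or by microplate reader in triplicate (GFP Ex480/Em530 nm, RFP Ex549/Em574 nm).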

[3] = In vivo toxicological study in rats: plasma chemistry; parameters: species or system rats of the Wistar strain
Method: Forty-two male and forty-two female rats of the Wistar strain were allocated to the study. Three groups of three males and three females were given doses of 30, 100 and 300 mg/kg of target compounds (Table 8). The vehicle was 1.5 w/w % HPMC, 1.5 w/w % PS80 in 10 mM PBS, pH 7 and dose volume were 5 mL/kg. The animals were acclimatised at least 14 day prior to the study and exposed to a 12 hours light, 12 hours dark light cycle. The formulations were administered via oral gavage. Administration occurred once daily in the morning for seven consecutive days. Blood for scheduled haematology and plasma chemistry were taken at necropsy. For plasma chemistry, 0.6 ml blood (lithium heparin) per animal and for haematology, 0.5 ml blood (K2EDTA) per animal. The blood and plasma were analysed using Exigo analyzer and Vetscan equipment. Blood samples were kept in room temperature […] after collection and mixing. The blood samples were analysed as whole blood within 60 min of collection. The VetScan analyser was calibrated with calibration samples of known plasma levels of each parameter before start of analysis, occasionally during the analysis period of study samples and after completed analyses (Table 10).

[4] = female, 30 mg/kg oral daily 7 d
[5] = female, 100 mg/kg oral daily 7 d
[6] = female, 300 mg/kg oral daily 7 d

With N#Cc1c(NC(=O)c2cccc3ccccc23)sc2c1CCCC2 [JNK-IN-5A, N-(3-cyano-4,5,6,7-tetrahydrobenzo[b]thiophen-2-yl)-1-naphthamide] the “cell cycle distribution / arrest” value (HepG2 cells [1]; PI FACS) was “significant G2/M cell cycle arrest”, the “Cell population G0/G1” value (HepG2 cells [1]; PI FACs, 10 μM, 2 days) was 22.7 and the “Cell population G2/M” value (HepG2 cells [1]; PI FACs, 10 μM, 2 days) was 67.3. The “Cell population S” value (HepG2 cells [1]; PI FACs, 10 μM, 2 days) was 4.4 and the mitochondrial membrane potential (HepG2 cells [2]) was “significantly decreased”.

COc1ccccc1NC(=O)N1CCc2c(sc(NC(=O)c3cccc4ccccc34)c2C#N)C1 [PKL-A152] gave an ALB [3, 4] of 56 g/L, an ALP [3, 4] of 84 U/L and an ALT [3, 4] of 23 U/L. The AMY [3, 4] was 548 U/L, the BUN [3, 4] was 4.9 mmol/L and the CA [3, 4] was 2.90 mmol/L. The CRE [3, 4] was 44 µmol/L, the GLOB [3, 4] was 7 g/L and the GLU [3, 4] was 8.0 mmol/L. The “K+” value [3, 4] was 2.9 mmol/L, the “NA+” value [3, 4] was 148 mmol/L and the PHOS [3, 4] was 2.28 mmol/L. The TBIL [3, 4] was 4.0 µmol/L, the TP [3, 4] was 64 g/L and the ALB [3, 5] was 58 g/L. The ALP [3, 5] was 162 U/L, the ALT [3, 5] was 20 U/L and the AMY [3, 5] was 573 U/L. For the same compound, the BUN [3, 5] was 6.0 mmol/L, the CA [3, 5] was 2.87 mmol/L and the CRE [3, 5] was 48 µmol/L. For the same compound, the GLOB [3, 5] was 8 g/L, the GLU [3, 5] was 7.8 mmol/L and the “K+” value [3, 5] was 4.5 mmol/L. The “NA+” value [3, 5] was 139 mmol/L, the PHOS [3, 5] was 2.38 mmol/L and the TBIL [3, 5] was 4.7 µmol/L. The TP [3, 5] was 66 g/L, the ALB [3, 6] was 56 g/L and the ALP [3, 6] was 134 U/L. The ALT [3, 6] was 21 U/L, the AMY [3, 6] was 539 U/L and the BUN [3, 6] was 5.2 mmol/L. It also gave a CA [3, 6] of 2.92 mmol/L, a CRE [3, 6] of 51 µmol/L and a GLOB [3, 6] of 8 g/L. The GLU [3, 6] was 7.7 mmol/L, the “K+” value [3, 6] was 4.8 mmol/L and the “NA+” value [3, 6] was 140 mmol/L. It also gave a PHOS [3, 6] of 2.39 mmol/L, a TBIL [3, 6] of 4.7 µmol/L and a TP [3, 6] of 64 g/L. The ALB ([3]; male, 30 mg/kg oral daily 7 d) was 50 g/L, the ALP ([3]; male, 30 mg/kg oral daily 7 d) was 272 U/L and the ALT ([3]; male, 30 mg/kg oral daily 7 d) was 30 U/L. It also gave an AMY ([3]; male, 30 mg/kg oral daily 7 d) of 837 U/L, a BUN ([3]; male, 30 mg/kg oral daily 7 d) of 5.7 mmol/L and a CA ([3]; male, 30 mg/kg oral daily 7 d) of 2.99 mmol/L. It also gave a CRE ([3]; male, 30 mg/kg oral daily 7 d) of 42 µmol/L, a GLOB ([3]; male, 30 mg/kg oral daily 7 d) of 13 g/L and a GLU ([3]; male, 30 mg/kg oral daily 7 d) of 8.0 mmol/L. For the same compound, the “K+” value ([3]; male, 30 mg/kg oral daily 7 d) was 4.6 mmol/L, the “NA+” value ([3]; male, 30 mg/kg oral daily 7 d) was 140 mmol/L and the PHOS ([3]; male, 30 mg/kg oral daily 7 d) was 2.11 mmol/L. It also gave a TBIL ([3]; male, 30 mg/kg oral daily 7 d) of 4.0 µmol/L, a TP ([3]; male, 30 mg/kg oral daily 7 d) of 63 g/L and an ALB ([3]; male, 100 mg/kg oral daily 7 d) of 51 g/L. The ALP ([3]; male, 100 mg/kg oral daily 7 d) was 267 U/L, the ALT ([3]; male, 100 mg/kg oral daily 7 d) was 25 U/L and the AMY ([3]; male, 100 mg/kg oral daily 7 d) was 838 U/L. It also gave a BUN ([3]; male, 100 mg/kg oral daily 7 d) of 5.7 mmol/L, a CA ([3]; male, 100 mg/kg oral daily 7 d) of 2.98 mmol/L and a CRE ([3]; male, 100 mg/kg oral daily 7 d) of 42 µmol/L. The GLOB ([3]; male, 100 mg/kg oral daily 7 d) was 12 g/L, the GLU ([3]; male, 100 mg/kg oral daily 7 d) was 8.2 mmol/L and the “K+” value ([3]; male, 100 mg/kg oral daily 7 d) was 4.7 mmol/L. The “NA+” value ([3]; male, 100 mg/kg oral daily 7 d) was 141 mmol/L, the PHOS ([3]; male, 100 mg/kg oral daily 7 d) was 2.57 mmol/L and the TBIL ([3]; male, 100 mg/kg oral daily 7 d) was 5.0 µmol/L. The TP ([3]; male, 100 mg/kg oral daily 7 d) was 63 g/L, the ALB ([3]; male, 300 mg/kg oral daily 7 d) was 49 g/L and the ALP ([3]; male, 300 mg/kg oral daily 7 d) was 244 U/L. The ALT ([3]; male, 300 mg/kg oral daily 7 d) was 28 U/L, the AMY ([3]; male, 300 mg/kg oral daily 7 d) was 854 U/L and the BUN ([3]; male, 300 mg/kg oral daily 7 d) was 5.5 mmol/L. For the same compound, the CA ([3]; male, 300 mg/kg oral daily 7 d) was 3.04 mmol/L, the CRE ([3]; male, 300 mg/kg oral daily 7 d) was 51 µmol/L and the GLOB ([3]; male, 300 mg/kg oral daily 7 d) was 14 g/L. For the same compound, the GLU ([3]; male, 300 mg/kg oral daily 7 d) was 8.6 mmol/L, the “K+” value ([3]; male, 300 mg/kg oral daily 7 d) was 4.5 mmol/L and the “NA+” value ([3]; male, 300 mg/kg oral daily 7 d) was 143 mmol/L. For the same compound, the PHOS ([3]; male, 300 mg/kg oral daily 7 d) was 2.47 mmol/L, the TBIL ([3]; male, 300 mg/kg oral daily 7 d) was 4.7 µmol/L and the TP ([3]; male, 300 mg/kg oral daily 7 d) was 63 g/L.
